Assay results from patent publication US7642269B2, “Pyrrolo[3,2-B]pyridine derivatives and processes for the preparation thereof” (Yuhan Corporation, priority 2005, dated 2010).

Legend:
H^+/K^+-ATPase = target: T1, H^+/K^+-ATPase (Sus scrofa, UniProt P19156); assay: Inhibitory effects on proton pump (H^+/K^+-ATPase) activity, hog gastric vesicles; type: biochemical; conditions: K^+ stimulated H^+/K^+-ATPase activity, hog gastric vesicle, Pi measured at 620 nm
T1 construct: used as an enzyme source of the in vitro enzyme reaction assay of proton pump; from tissue; host or cells: hog gastric fundic mucosa (membrane vesicles, lyophilized)
T1 sequence (P19156 2-1034 limits assumed): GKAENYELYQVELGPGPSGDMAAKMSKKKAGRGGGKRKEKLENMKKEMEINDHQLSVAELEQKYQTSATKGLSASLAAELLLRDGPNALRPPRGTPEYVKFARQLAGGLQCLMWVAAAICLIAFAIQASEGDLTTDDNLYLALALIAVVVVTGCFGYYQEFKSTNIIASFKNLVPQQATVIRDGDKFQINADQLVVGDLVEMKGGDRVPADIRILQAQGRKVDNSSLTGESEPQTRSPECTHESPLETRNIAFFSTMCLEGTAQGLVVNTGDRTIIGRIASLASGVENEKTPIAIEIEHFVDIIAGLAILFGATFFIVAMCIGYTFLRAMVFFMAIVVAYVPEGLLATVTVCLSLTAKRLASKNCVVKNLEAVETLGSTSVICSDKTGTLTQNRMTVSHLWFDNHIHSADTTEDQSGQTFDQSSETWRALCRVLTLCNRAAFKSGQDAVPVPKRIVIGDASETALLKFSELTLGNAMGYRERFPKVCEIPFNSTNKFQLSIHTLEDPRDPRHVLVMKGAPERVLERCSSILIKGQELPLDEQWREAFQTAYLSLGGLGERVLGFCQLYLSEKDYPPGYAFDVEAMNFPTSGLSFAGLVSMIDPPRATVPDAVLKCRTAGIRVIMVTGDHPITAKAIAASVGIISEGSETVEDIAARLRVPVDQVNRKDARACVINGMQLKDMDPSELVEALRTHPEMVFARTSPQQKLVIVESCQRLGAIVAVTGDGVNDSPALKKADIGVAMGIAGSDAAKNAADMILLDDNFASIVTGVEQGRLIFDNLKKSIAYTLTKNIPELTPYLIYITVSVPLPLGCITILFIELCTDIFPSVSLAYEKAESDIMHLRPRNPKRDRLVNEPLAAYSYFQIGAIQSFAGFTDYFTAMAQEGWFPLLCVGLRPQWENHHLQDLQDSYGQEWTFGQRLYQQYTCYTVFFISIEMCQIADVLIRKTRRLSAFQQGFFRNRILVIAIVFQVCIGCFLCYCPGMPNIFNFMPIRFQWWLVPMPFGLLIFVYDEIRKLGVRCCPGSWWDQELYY
T1 sequence (P18434 whole entry partner): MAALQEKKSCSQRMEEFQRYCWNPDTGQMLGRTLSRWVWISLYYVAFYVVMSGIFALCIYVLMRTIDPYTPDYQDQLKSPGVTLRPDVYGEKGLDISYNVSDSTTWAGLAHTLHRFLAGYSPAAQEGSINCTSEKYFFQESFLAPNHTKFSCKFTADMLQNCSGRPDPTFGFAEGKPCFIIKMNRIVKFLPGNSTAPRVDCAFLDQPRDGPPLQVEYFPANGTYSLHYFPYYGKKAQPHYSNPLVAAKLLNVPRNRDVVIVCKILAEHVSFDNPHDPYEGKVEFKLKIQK
Procedure, shortened: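 Lyophilized hog gastric vesicles in Pipes/Tris pH 6.1 were preincubated 5 min with compounds (1% DMSO), then run with ATP for 30 min at 37 °C. Released phosphate was measured by malachite green at 620 nm; K^+-stimulated activity taken as the difference between reactions with and without K^+.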

[1] = tested on: basal gastric acid secretion; assay: Inhibitory effects on basal gastric acid secretion in pylorus-ligated rats (Shay's rat model); type: in vivo, Sprague Dawley (SD) rats; conditions: oral, one hour before pylorus ligation, total acid output 5 hours after ligation, male SD rats
Method: Inhibitory effects of the compounds of the present invention on basal gastric acid secretion were performed according to Shay's rat model (Shay, H., et al., 1945, gastroenterology, 5, 43-61). Male Sprague Dawley (SD) rats (200±10 g body weight) were divided into 3 groups (n=5) and fasted for 24 hours with free access to water. Control group was orally administered with 0.5% methylcellulose alone and the other groups were orally administered with test compounds suspended in 0.5% methyl-cellulose solution at doses of 1, 3 and 10 mg/kg/5 ml one hour before pylorus ligation. Under ether anesthesia, the abdomens of the rats were incised and then the pylorus was ligated. 5 hours after ligation, the animals were sacrificed, and the gastric contents were collected. The collected contents were centrifuged at 1,000×g for 10 minutes to obtain the gastric juice. Total acid output was measured by 0.01N NaOH volume (ueq/ml) for automatic titration of the gastric juice to pH 7.0 and the ED50s of test compounds were calculated using the Litchfield-Wilcoxon method. % inhibitory activity was calculated from the following equation and the results are shown in Table 2. % inhibitory activity of test compound=(total acid output of control group−total acid output of the group treated with test compounds)/total acid output of control group X 100

[2] = target: T2, hog gastric H^+/K^+-ATPase (Sus scrofa, UniProt P19156); assay: Reversible inhibition of hog gastric H^+/K^+-ATPase (Washout method); type: biochemical; conditions: for inhibition of H^+/K^+-ATPase activity after washout: activity completely recovered to non-treated group level; for inhibition of H^+/K^+-ATPase activity before washout: at the concentration giving 50% inhibition of the proton pump
T2 construct: from tissue; host or cells: hog fundic mucosa (gastric vesicles / microsomes, lyophilized)
T2 sequence (P19156 2-1034 limits assumed): as the sequence (P19156 2-1034 limits assumed) above
T2 sequence (P18434 whole entry partner): as the sequence (P18434 whole entry partner) above
Method: 3-1. […] Gastric vesicles were prepared from hog fundic mucosa using the method of Saccomani et al. (Saccomani […], Lewin M and Sachs G, Characterization of gastric mucosal membranes. IX. Fraction and purification of K-ATPase-containing vesicles by zonal centrifugation and free-flow electrophoresis technique. Biochem. Biophy. Acta. (BBA)-Biomembranes 465, 311-330, 1977.). This material was lyophilized and stored at -70° C. The protein content of gastric vesicles was determined by the Bradford method using bovine serum albumin as a standard (Bradford M M, A rapid and sensitive method for the quantitation of microgram quantities of protein utilizing the principle of protein-dye binding. Anal Biochem. 72, 248-254, 1976). 3-2. Determination of reversible inhibition of hog gastric H^+/K^+-ATPase Activity of H^+/K^+-ATPase in hog microsome (lyophilized vesicle) was measured by the inorganic phosphate released from ATP using an one-step colorimetric detection method at the concentration at which the test compounds have 50% inhibition of the proton pump (Chan […], and Junger K D, A direct colorimetric assay for Ca^2+-stimulated ATPase activity. Anal Biochem, 157, 375-380, 1986). […] Differentiation of their inhibition characteristics from those of omeprazole. Eur. J. Pharmacol., 187, 455-67, 1990). Lyophilized vesicle in the solution of 5 mM Pipes/Tris buffer was pre-incubated in the presence of the test compounds (the compounds of Examples 50, 64, and 94) at the concentration at which it has 50% inhibition of the proton pump. The previous reaction buffer was added with 2 mM MgCl2, 50 mM KCl, 5 uM Valinomycin, and 0.5 mM ATP and then incubated for 30 minutes at 37° C. The H^+/K^+-ATPase activity was measured using the calorimetric detection method and then the test sample was centrifuged at 100,000×g for 1 hr. The vesicles are present in the form of pellets in the test sample. The supernatant thereof was replaced with the same buffer not having the test compound. […] The H^+/K^+-ATPase activity was also measured using the calorimetric detection method. The H^+/K^+-ATPase activity before washout and after washout in the test sample was analyzed, in comparison with those in the non-treated group.

| IC50 (H^+/K^+-ATPase) [nM] | inhibition of H^+/K^+-ATPase activity after washout [2] | inhibition of H^+/K^+-ATPase activity before washout [2] [%] | Compound | ED50 [1] [mg/kg] |
| --- | --- | --- | --- | --- |
| 2440 | did not inhibit | 50 | Cc1c(C)n(CC(C)C)c2c(OCc3ccc(F)cc3)ccnc12.Cl [Example 50, 7-(4-fluorobenzyloxy)-1-isobutyl-2,3-dimethyl-1H-pyrrolo[3,2-b]pyridine hydrochloride] | 2.4 |
| 890 | did not inhibit | 50 | COC(=O)c1ccc(Cn2c(C)c(C)c3nccc(OCc4ccc(Cl)cc4)c32)cc1.Cl [Example 94, 7-(4-chlorobenzyloxy)-1-(4-methoxycarbonylbenzyl)-2,3-dimethyl-1H-pyrrolo[3,2-b]pyridine hydrochloride] |  |
|  | did not inhibit |  | Cc1c(C)n(Cc2ccccc2)c2c(OCc3ccc(F)cc3)ccnc12.O=S(=O)(O)c1ccccc1 [Example 64, 1-benzyl-7-(4-fluorobenzyloxy)-2,3-dimethyl-1H-pyrrolo[3,2-b]pyridine benzenesulfonate] |  |
